Test results reported in PubChem BioAssay (NCI).
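In this assay, cells in 96-well plates receive the compound at five concentrations for 48 hours. Endpoints are linearly interpolated between the surrounding concentrations. TGI is the concentration that stops growth completely.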

Key:
Test in all cases: DTP human tumour cell line panel, 48 h
[1] = system: HOP-62 NSCLC
[2] = system: UACC-62 melanoma
[3] = system: UACC-257 melanoma
[4] = system: RPMI-8226 leukemia
[5] = system: SR leukemia
[6] = system: UO-31 renal
[7] = system: NCI-H226 lung
[8] = system: OVCAR-4 ovarian
[9] = system: K-562 leukemia
[10] = system: A498 renal
[11] = system: SF-539 CNS
[12] = system: HL-60(TB) leukemia

CCOC(=O)C(Cc1ccc(O)cc1)Nc1nc(=O)c2c(=O)oc(Cl)cc2o1 (configuration not stated) showed a TGI [1] of 26.7 µM, a TGI [2] of 28.5 µM and a TGI [3] of 29.7 µM. For the same compound, the TGI [4] was 8.59 µM, the TGI [5] was 7.53 µM and the TGI [6] was 23.8 µM. For the same compound, the TGI [7] was 42.5 µM, the TGI [8] was 25.9 µM and the TGI [9] was 31.6 µM. It also gave a TGI [10] of 35.3 µM, a TGI [11] of 21.9 µM and a TGI [12] of 13.5 µM.
